# Values of other authors in patent US10302625B2, “Peripheral measure of central brain inflammation, markers therefor and uses thereof” (CENTRE FOR ADDICTION AND MENTAL HEALTH, priority 2015, dated 2019).
# Molecular target: T1, TSPO (Sus scrofa, UniProt Q6UN27)
# T1 sequence (Q6UN27 1-169): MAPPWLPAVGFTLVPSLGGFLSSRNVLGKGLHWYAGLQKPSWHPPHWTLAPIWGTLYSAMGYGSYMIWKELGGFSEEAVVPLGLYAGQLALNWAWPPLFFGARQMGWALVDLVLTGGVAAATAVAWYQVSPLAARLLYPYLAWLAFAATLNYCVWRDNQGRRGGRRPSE
# Conditions: literature ref 19
compound,measurement,value
CC(=O)N(Cc1ccccc1OCC[18F])c1cnccc1Oc1ccccc1 [[18F]FEPPA],affinity for TSPO,"high, selective affinity for TSPO"
